Data on ten compounds can be found in patent publication US20240382471A1, “GLUCAGON-LIKE PEPTIDE-1 RECEPTOR MODULATORS AND USES THEREOF” (HEPAGENE THERAPEUTICS (HK) LIMITED, priority 2021, published 2024).

By EC50 is commonly meant the concentration that produces a half-maximal response.

The structures appear in SMILES notation. Some results are limits rather than exact numbers.

Experiment [1] addresses T1, GLP1R (Homo sapiens, UniProt P43220). The experiment is described as follows: GLP1R/CRE-Luc luciferase reporter gene assay (agonist activity). Also noted: host or cells: HKE293 (so in the source). The note with it: HKE293-Human GLP1R/CRE-luc cells, 5 h at 37° C., read-out: EC50 (nM) Assay 2. The format is cell-based. As for the experimental part: GLP1R-mediated agonist activity was determined with a cell-based functional assay utilizing a britelite plus luciferase reporter gene assay system. The stable cell line overexpress GLP1R and target response element. The stimulation with GLP1R agonist results in the upregulation of intracellular cAMP, which regulate the activities of cAMP-response element binding protein (CREB) and CREB-Luc. Reagents and equipment used in the assay are listed below, followed by the protocol.
• 1) Cell Line: HKE293-Human GLP1R/CRE-luc • 2) Complete Medium: DMEM+10% FBS+1×Penicillin-Streptomycin+400 μg/mL G418
• a) Seed HKE293-Human GLP1R/CRE-luc cells at 20,000 cells/well into 384 well assay plate (6007680-50, PE) using complete medium and incubate overnight. • b) Prepare 6×compound working solution with Medium. • c) Add 5 μL 6×compound working solution into cell plate, incubate 5 h at 37° C. • d) Add 20 μl britelite plus Luciferase Assay Reagent into each well of 384-well assay plate. • e) Record the luminescence value on Envision plate reader.
(§1) • 3.1% Activity is calculated as follow:
% Activity=(Signalcmpd−SignalAve_VC)/(SignalAve_PC−SignalAve_VC)×100. • 3.2 Calculate EC50 and Plot effect-dose curve of cmpds:
Y=Bottom+(Top−Bottom)/(1+10^((Log EC50−X)*HillSlope)) • X: log of agonist concentration; Y: % Activity.
On the technique in general: In a reporter assay the amount or activity of a reporter protein is the signal.
Target sequence in this assay (P43220 24-463): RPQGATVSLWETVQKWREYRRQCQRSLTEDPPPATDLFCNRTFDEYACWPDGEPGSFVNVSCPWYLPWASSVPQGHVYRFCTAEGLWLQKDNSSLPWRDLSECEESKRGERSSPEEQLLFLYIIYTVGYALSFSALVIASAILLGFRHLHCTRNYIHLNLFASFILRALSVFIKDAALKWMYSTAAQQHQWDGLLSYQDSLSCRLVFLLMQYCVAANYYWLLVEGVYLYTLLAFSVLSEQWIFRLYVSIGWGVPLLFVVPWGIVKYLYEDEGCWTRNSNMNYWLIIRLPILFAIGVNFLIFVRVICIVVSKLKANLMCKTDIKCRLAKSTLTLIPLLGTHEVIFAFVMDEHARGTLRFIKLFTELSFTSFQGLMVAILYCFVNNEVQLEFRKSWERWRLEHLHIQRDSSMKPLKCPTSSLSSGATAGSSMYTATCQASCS

In experiment [2] the target is T1, GLP1R. Kind of experiment: GLP1R cAMP assay (HTRF cAMP detection, agonist activity). Type of experiment: cell-based. The settings on record: Flp-In-293-GLP1R cells, 30 min at 37° C., read-out: EC50 (nM) Assay 1. Also noted: host or cells: Flp-In-293. Here is the method: GLP1R-mediated agonist activity was determined with a cell-based functional assay utilizing an HTRF (Homogeneous Time-Resolved Fluorescene) cAMP detection kit that measures CAMP levels in the cell. Reagents and equipment used in the assay are listed below, followed by the protocol.
• 1) Cell Line: Flp-In-293-GLP1R (constructed by Pharmaron Beijing Co., Ltd) • 2) Complete Medium: DMEM+10% FBS+1×Penicillin-Streptomycin+200 μg/mL HB • 3) Assay Buffer: 1×HBSS+20 mM HEPES+0.1% BSA+500 μM IBMX
• a) Seed Flpin-293-GLP1R cells at 20,000 cells/well into 384 well assay plate (6007680-50, PE) using complete medium. • b) Prepare 4×compound working solution with assay buffer. • c) Add 5 μL 4×compound working solution into cell plate, incubate 30 min at 37° C. • d) Dilute Eu-cAMP tracer (1/50) with lysis buffer and add 10 μl/well to assay plate. • e) Dilute Ulight-anti-cAMP (1/150) with lysis buffer and add 10 μl/well to assay plate. • f) Incubate 1 h at RT. • g) Read the plate at wavelengths of 665 nm and 615 nm on Envision 2105 plate reader.
as §1
Target sequence in this assay (P43220 24-463, species assumed): as the sequence (P43220 24-463) above
% Activity=100−(Signalcmpd−SignalAve_PC)/(SignalAve_VC−SignalAve_PC)×100. • 3.2 Calculate EC50 and Plot effect-dose curve of cmpds:
Y=Bottom+(Top−Bottom)/(1+10^((Log EC50−X)*Hill Slope)) • X: log of agonist concentration; Y: % Activity.
(Cyclic AMP is a second messenger, typically raised through Gs and lowered through Gi signalling.)

With `COc1c(COc2cccc(C34CCN(Cc5nc6ccc(C(=O)O)cc6n5C[C@@H]5CCO5)CC3C4)n2)ccc(C#N)c1F` (stereo partly drawn) [Compound 1-29, 2-((6-(6-((4-cyano-3-fluoro-2-methoxybenzyl)oxy)pyridin-2-yl)-3-azabicyclo[4.1.0]heptan-3-yl)methyl)-1-(((S)-oxetan-2-yl)methyl)-1H-benzo[d]imidazole-6-carboxylic acid], the EC50 on GLP1R [1] was found to be 168 nM.

For the compound `COc1cc(Br)ccc1COc1cccc(C23CCN(Cc4nc5ccc(C(=O)O)cc5n4C[C@@H]4CCO4)CC2C3)n1` (stereo partly drawn) [Compound 1-16, 2-((6-(6-((4-bromo-2-methoxybenzyl)oxy)pyridin-2-yl)-3-azabicyclo[4.1.0]heptan-3-yl)methyl)-1-(((S)-oxetan-2-yl)methyl)-1H-benzo[d]imidazole-6-carboxylic acid], on GLP1R [1], the EC50 was 24.8 nM.

With `COc1nc(C#N)ccc1COc1ccnc(C23CCN(Cc4nc5c(OC)cc(C(=O)O)cc5n4C[C@@H]4CCO4)CC2C3)n1` (stereo partly drawn) [Compound 1-35, 2-((6-(4-((6-cyano-2-methoxypyridin-3-yl)methoxy)pyrimidin-2-yl)-3-azabicyclo[4.1.0]heptan-3-yl)methyl)-4-methoxy-1-(((S)-oxetan-2-yl)methyl)-1H-benzo[d]imidazole-6-carboxylic acid], at GLP1R [1], the EC50 turned out to be 2.68 nM.

Consider `CCn1cncc1Cn1c(CN2CCC3(c4nccc(OCc5ccc(C(F)(F)F)cc5OC)n4)CC3C2)nc2c(OC)cc(C(=O)O)cc21` (stereo not shown) [Compound 1-48, 1-((1-ethyl-1H-imidazol-5-yl)methyl)-4-methoxy-2-((6-(4-((2-methoxy-4-(trifluoromethyl)benzyl)oxy)pyrimidin-2-yl)-3-azabicyclo[4.1.0]heptan-3-yl)methyl)-1H-benzo[d]imidazole-6-carboxylic acid], for which the EC50 at GLP1R [1] was determined as 0.33 nM.

For the compound `COc1cc(C#N)ccc1COc1ccnc(C23CCN(Cc4nc5c(OC)cc(C(=O)O)cc5n4C[C@@H]4CCO4)CC2C3)n1` (single isomer, unassigned) [Compound 1-38-B], the EC50 at GLP1R [1] was 0.28 nM.

Take `CCn1cncc1Cn1c(CN2CCC3(c4nccc(OCc5ccc(C#N)cc5OC)n4)CC3C2)nc2c(OC)cc(C(=O)O)cc21` (stereo not shown) [Compound 1-45, 2-((6-(4-((4-cyano-2-methoxybenzyl)oxy)pyrimidin-2-yl)-3-azabicyclo[4.1.0]heptan-3-yl)methyl)-1-((1-ethyl-1H-imidazol-5-yl)methyl)-4-methoxy-1H-benzo[d]imidazole-6-carboxylic acid]: the EC50 on GLP1R [1] is 0.16 nM.

Regarding `COc1nc(C#N)ccc1COc1cccc(C23CCN(Cc4nc5ccc(C(=O)O)cc5n4C[C@@H]4CCO4)CC2C3)n1` (stereo partly drawn) [Compound 1-13, 2-((6-(6-((6-cyano-2-methoxypyridin-3-yl)methoxy)pyridin-2-yl)-3-azabicyclo[4.1.0]heptan-3-yl)methyl)-1-(((S)-oxetan-2-yl)methyl)-1H-benzo[d]imidazole-6-carboxylic acid], on GLP1R [1], the EC50 was 35.8 nM.

As to `COc1cc(C#N)ccc1COc1cccc(C23CCN(Cc4nc5ccc(C(=O)O)cc5n4C[C@@H]4CCO4)CC2C3)n1` (single isomer, unassigned) [Compound 1-6-B], the EC50 on GLP1R [1] was 4.98 nM.

For the compound `COc1ccc(COc2cccc(C34CCN(Cc5nc6ccc(C(=O)O)cc6n5C[C@@H]5CCO5)CC3C4)n2)c(F)c1` (stereo partly drawn) [Compound 1-37, 2-((6-(6-((2-fluoro-4-methoxybenzyl)oxy)pyridin-2-yl)-3-azabicyclo[4.1.0]heptan-3-yl)methyl)-1-(((S)-oxetan-2-yl)methyl)-1H-benzo[d]imidazole-6-carboxylic acid], the EC50 at GLP1R [1] was found to be 497 nM.

In the case of `N#Cc1ccc(COc2ncccc2N2CC3CCC(C2)N3Cc2nc3ccc(C(=O)O)cc3n2C[C@@H]2CCO2)c(F)c1` [Compound 2-16, 2-[(3-{2-[(4-cyano-2-fluorophenyl)methoxy]pyridin-3-yl}-3,8-diazabicyclo[3.2.1]octan-8-yl)methyl]-3-[(2S)-oxetan-2-ylmethyl]-1,3-benzodiazole-5-carboxylic acid], on GLP1R [2], the EC50 was more than 4 nM.
